Measured values from US7745450B2, “Pyrazolo[4,3-d]pyrimidines, processes for their preparation and methods for therapy” (Institute of Experimental Botany, priority 2002, dated 2010).
Where two headings read alike, the source gives them in different places.

Tests used:
MMK1 protein kinase = MMK1 protein kinase (Vicia faba, UniProt A0AAV1B7B8); assay: MMK1 protein kinase activity; type: biochemical
Procedure: Protein extraction and purification of pant CDK by binding to p13^suc1-beads or immunopurification with an antibody specific to the cdc2a-MS protein was carried out as described previously (Bögre et al. 1997, Plant Physiol. 113, 1997, 841-852). The MMK1 protein kinase was purified with a specific antibody from Vicia faba extracts as described by Bögre et al. 1997a, Plant Cell 9, 75-83). Protein kinase activity was measures as described above in Example 20. The quantification of radioactivity incorporated into histone H1 or myelin basic protein was undertaken using phosphoimager (FIG. 2).

normal human lymphocytes = assay: Immunosuppressive activity, 3H-thymidine incorporation in concanavalin A activated lymphocytes; type: cell-based; settings: Lymphocyte, 72 hours, [3H]-TdR, read-out: Human lymphocytes ED50
Procedure: Human heparinized peripheral blood was obtained from healthy volunteers by cubital vein punction. The blood was diluted in PBS (1:3) and mononuclear cells were separated by centrifugation in Ficoll-Hypaque density gradient (Pharmacia, 1.077 g/ml) at 2200 rpm for 30 minutes. Following centrifugation, lymphocytes were washed in PBS and resuspended in cell culture medium (RMPI 1640, 2 mM glutamine, 100 U/ml penicillin, 100 μg/ml streptomycin, 10% fetal calf serum and sodium bicarbonate).
The cells were diluted at target density of 1.100.000 cells/ml were added by pipette (180 μl) into 96/well microtiter plates. Four-fold dilutions of the intended test concentration were added at time zero in 20 μl aliquots to the microtiter plate wells. Usually, test compound was evaluated at six 4-fold dilutions. In routine testing, the highest well concentration was 266.7 μM. All drug concentrations were examined in duplicates. All wells with exception of unstimulated controls were activated with 50 μl of concanavalin A (25 μg/ml). Incubations of cells with test compounds lasted for 72 hours at 37° C., in 5% CO2 atmosphere and 100% humidity. At the end of incubation period, the cells were assayed by using the [^3H]-TdR:
Cell cultures were incubated with 0.5 μCi (20 μl of stock solution […]) per well for 6 hours at 37° C. and 5% CO2. The automated cell harvester was used to lyse cells in water and adsorb the DNA onto glass-fiber filters in the format of microtiter plate. The DNA incorporated [^3H]-TdR was retained on the filter while unincorporated material passes through. The filters were dried at room temperature overnight, sealed into a sample bag with 10-12 ml of scintillant. The amount of [^3H]-TdR present in each filter (in cpm) was determined by scintillation counting in a Betaplate liquid scintillation counter. The effective dose of immunosuppressant (ED) was calculated using the following equation: ED=(CCPMdrug exposed well/mean CCPMcontrol wells)×100%.

B16 = assay: In vitro cytotoxic activity, Calcein AM; type: cell-based; settings: Mus musculus, B16, 72 h, three days
[1] = test system: CEM (human lymphoblastoid leukemia); assay: In vitro cytotoxic activity, Calcein AM; type: cell-based; settings: Homo sapiens, 72 h, three days
In short: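 CEM cells were seeded at 10^4/well in DMEM + 10% FBS and exposed to six concentrations from 200 to 0.2 μM, in triplicate, for 3 days at 37 °C and 5% CO2. Viable cells were then measured by Calcein AM fluorescence after 1 h loading.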

[2] = test system: human diploid fibroblasts (HCA cells); assay: Inhibition of senescence, β-galactosidase staining of fibroblasts; type: cell-based; settings: for SENESCENT CELLS (%) HCA25: HCA cells passage 25, β-galactosidase staining; for SENESCENT CELLS (%) HCA45: HCA cells passage 45, β-galactosidase staining; for SENESCENT CELLS (%) HCA80: HCA cells passage 80, β-galactosidase staining
Procedure: In this example, human diploid fibroblasts (HCA cells of various passage levels: passage 25—designated HCA25; passage 45—designated HCA45; passage 80—designated HCA80) were stained for β-galactosidase activity. The medium present on cultured cells was removed, the cells were washed twice in […], and fixed in 2-3 ml of fixing solution comprised of a 2% formaldehyde and 0.2% glutaraldehyde in PBS. The cells were incubated at room temperature for 5 minutes, then washed twice with PBS. The cells were then incubated at 37° C. […] In this experiment, senescent cells, but not other cells were stained blue due to the action of β-galactosidase on the substrate (FIG. 9).

[3] = test system: T-lymphocyte leukemia Molt3 cell line; assay: Cell proliferation of Molt3, flow cytometric cell count; type: cell-based, human; settings: 96 hours
Procedure: (§1) Cell lines: Human leukemic cell lines were obtained from the American Type Culture Collection (ATCC, Rockville, Md., USA). They were cultured in Iscove's Modified Dulbecco's Medium (IMDM) supplemented with 10% heat inactivated fetal calf serum (FCS), 200 U/ml penicillin, 200 μg/ml streptomycin and 1 μg/ml amphotericin B. Cells were cultured in a 5% CO2-95% air fully humidified incubator. For effects on clonogenic output, 1000 cells/well were plated in duplicate in methylcellulose (0.9%), supplemented with 20% FCS for 14 days.
(§2) Cells were plated at 10000 per well in 200 μl IMDM medium and incubated with 0-50 μM of the novel compounds (Tab 8), by addition of drug directly to the culture medium and incubated at 37° C. for 96 hours (Tab 8). Absolute cell number was determined by addition of a known concentration Fluoresbrite microspheres (FITC) (Polysciences, Inc.). The absolute number of cells/well was calculated as: {(total number of beads added/well)/(number of beads measured)×(number of measured cells in the gate of interest)}. All analyses were performed with a FACScan (BD), using CELLQuest software (Becton Dickinson).
(§3) Response of the myeloid leukemia KG1 and T-lymphocyte leukemia Molt3 cell lines to the cytostatic effect of the novel compounds was determined using the above-mentioned standardized bead suspension that was used to determine the absolute cell number by flow cytometric (FCM) measurement. Cells were grown in the presence of increasing concentration of the novel compounds.

cdk1/cyclin B (CDC2) = cdk1/cyclin B (CDC2) (Homo sapiens, UniProt P06493); assay: CDK inhibition assay, cdk1/cyclin B (CDC2) kinase, histone phosphorylation; type: biochemical
cdk1/cyclin B (CDC2), sequence (P06493 whole entry, species assumed): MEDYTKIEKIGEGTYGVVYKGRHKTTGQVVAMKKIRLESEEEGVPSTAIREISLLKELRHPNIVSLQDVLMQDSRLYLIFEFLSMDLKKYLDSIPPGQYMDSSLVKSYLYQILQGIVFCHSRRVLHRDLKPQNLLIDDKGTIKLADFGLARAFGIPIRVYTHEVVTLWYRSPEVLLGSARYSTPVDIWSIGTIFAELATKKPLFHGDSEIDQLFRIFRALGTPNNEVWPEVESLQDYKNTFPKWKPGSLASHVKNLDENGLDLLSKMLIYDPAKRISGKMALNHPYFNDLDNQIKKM
cdk1/cyclin B (CDC2), sequence (P14635 whole entry partner, species assumed): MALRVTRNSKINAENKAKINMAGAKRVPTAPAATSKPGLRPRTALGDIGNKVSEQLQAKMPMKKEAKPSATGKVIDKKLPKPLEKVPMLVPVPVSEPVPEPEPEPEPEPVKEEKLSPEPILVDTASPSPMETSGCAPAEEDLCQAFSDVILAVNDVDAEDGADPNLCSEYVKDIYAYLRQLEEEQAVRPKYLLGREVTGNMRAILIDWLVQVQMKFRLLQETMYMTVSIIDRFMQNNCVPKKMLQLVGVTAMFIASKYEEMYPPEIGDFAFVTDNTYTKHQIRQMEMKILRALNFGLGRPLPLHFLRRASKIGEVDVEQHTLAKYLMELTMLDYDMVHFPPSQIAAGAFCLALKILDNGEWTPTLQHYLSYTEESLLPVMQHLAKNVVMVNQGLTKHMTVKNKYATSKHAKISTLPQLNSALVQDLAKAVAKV
In short: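 Radiometric endpoint kinase assay under linear conditions: histone (1 mg/ml) phosphorylated with 15 μM ATP and [γ-32P]ATP in 50 mM HEPES pH 7.4, 10 mM MgCl2, 1 mM DTT. IC50 obtained graphically from dose-response curves of % maximal activity, read by imaging analyzer.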

[4] = test system: PHA-stimulated lymphocytes (PBMC); assay: Proliferation of PHA-stimulated lymphocytes (PBMC), flow cytometric cell count; type: cell-based, human; settings: 96 hours, IL-2
Procedure: Peripheral blood mononuclear cells (PBMC): Human peripheral blood mononuclear cells were isolated by density gradient (Ficoll-Hypaque) (LSM, ICN Biomedicals Inc.). PBMC were stimulated with 5 μg/ml phytohemaglutinin A (PHA) (Sigma) during 24-48 hours in IMDM supplemented with 10% FCS at 37° C. After washing off the PHA, PBMC were incubated with interleukin-2 (IL-2) (10 U/ml) (Genzyme).
as §2
PHA-stimulated lymphocytes (PBMC) were tested for their cytotoxicity as one of the normal counterparts of the cell lines. Cells were grown for 96 hours in the presence of IL-2 and different concentrations of the novel compounds and cell number was counted on the flow cytometer.

[5] = test system: myeloid leukemia KG1 cell line; assay: Cell proliferation of KG1, flow cytometric cell count; type: cell-based, human; settings: 96 hours; for IC50: read-out: KG1 IC50
Procedure: as §1, §2, §3
To determine reversibility of the effects of the novel compounds, cells were plated at 10000 per well and exposed to 0-50 μM of the compounds for the time indicated, followed by washing in phosphate-buffered saline (PBS) (Life Technologies) and reseeded into drug-free medium for 7 additional days. An identical set of cells was plated and exposed to the drugs for 7 additional days. After 7 days (168 hours), the relative cell number was assayed by flow cytometry.

MMK1 protein kinase, sequence (A0AAV1B7B8 1-394): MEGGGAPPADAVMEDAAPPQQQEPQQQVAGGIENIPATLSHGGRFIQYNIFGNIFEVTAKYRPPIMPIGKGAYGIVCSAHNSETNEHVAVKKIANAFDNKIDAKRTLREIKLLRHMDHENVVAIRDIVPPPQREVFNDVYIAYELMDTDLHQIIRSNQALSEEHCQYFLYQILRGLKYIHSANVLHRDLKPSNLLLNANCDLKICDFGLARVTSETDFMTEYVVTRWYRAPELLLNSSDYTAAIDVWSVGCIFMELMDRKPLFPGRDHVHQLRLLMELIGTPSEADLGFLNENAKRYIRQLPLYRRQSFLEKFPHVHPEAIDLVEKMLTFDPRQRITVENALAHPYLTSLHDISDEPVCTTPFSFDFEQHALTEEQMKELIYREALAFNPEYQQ

Row | Compound | IC50 (MMK1 protein kinase) [µM] | EC50 (normal human lymphocytes) [µM] | GI50 (B16) [µM] | GI50 [1] [µM] | SENESCENT CELLS (%) HCA25 [2] [%] | SENESCENT CELLS (%) HCA45 [2] [%] | SENESCENT CELLS (%) HCA80 [2] [%] | also measured
1 | CC(C)c1n[nH]c2c(NCc3ccccc3)nc(NC3CCCCC3N)nc12 (centres unmarked) | 0.02 | 0.8 | 28 | 14 | – | – | – | –
2 | CC(C)c1n[nH]c2c(NCc3ccccc3)nc(NCCN)nc12 | 1.2 | 11.5 | 42 | 26 | – | – | – | –
3 | CC(C)c1n[nH]c2c(Nc3cccc(Cl)c3)nc(NCCO)nc12 | 0.28 | 17 | 29 | 18 | 4 | 4 | 38 | –
4 | Cc1n[nH]c2c(NCc3ccccc3)nc(NCCO)nc12 | 29.3 | 34 | 47 | 45 | – | – | – | –
5 | Cc1n[nH]c2c(NCc3ccccc3)nc(NCCCO)nc12 | 5.8 | 28 | 41 | 40 | – | – | – | –
6 | CC(C)c1n[nH]c2c(Nc3cccc(Cl)c3)nc(NC3CCC(N)CC3)nc12 (centres unmarked) | 0.012 | 0.5 | 1.3 | 0.5 | 4 | 5 | 35 | –
7 | CC(C)c1n[nH]c2c(NCc3ccccc3)nc(NC3CCC(N)CC3)nc12 (centres unmarked) | 0.02 | 1.1 | 2.3 | 1.5 | – | – | – | –
8 | CC(C)c1n[nH]c2c(NCc3ccccc3)nc(N(CCO)CCO)nc12 | 1.1 | 16 | 38 | 25 | – | – | – | –
9 | Cc1n[nH]c2c(NCc3ccccc3)nc(N(CCO)CCO)nc12 | 8.1 | 25 | 40 | 35 | – | – | – | –
10 | CN(Cc1ccc(O)c(O)c1)c1ncnc2cn[nH]c12 | – | – | – | – | 4 | 4 | 22 | –
11 | CC[C@H](CO)Nc1nc(NCc2ccccc2)c2n[nH]c(C(C)C)c2n1 | 0.03 | 4.5 | 3.2 | 2.4 | – | – | – | –
12 | 5-(2-hydroxyethylthio)-671-phenyl-2-hydroxyethylamino-3-isopropylpyrazolo[4,3-d]pyrimidine [Compound 96] | – | – | – | – | – | – | – | IC50 [3]: 10 ± 1.2 µM; IC50 (cdk1/cyclin B (CDC2); cell free system (Table 8)): 5.8 µM; IC50 [4]: 8 ± 0.5 µM; Effectiveness on KG1 compared with normal PBMC [5]: significantly more effective on KG1 than on normal PBMC; IC50 [5]: 9 ± 0.4 µM
13 | 5-(3-hydroxypropylamino)-7-[N-(3,4-dihydroxybenzyl-N-methyl]amino-isopropylpyrazolo[4,3-d]pyrimidine [Compound 42] | – | – | – | – | – | – | – | IC50 [3]: 13 ± 2.1 µM; IC50 (cdk1/cyclin B (CDC2); cell free system (Table 8)): 2.6 µM; IC50 [4]: 5.9 ± 2.9 µM; IC50 [5]: 10.7 ± 0.3 µM
14 | 5-(3-hydroxypropylamino)-7[N-(3,4-dihydroxybenzyl-N-methyl]amino-3-isopropylpyrazolo[4,3-d]pyrimidine [Compound 50] | – | – | – | – | – | – | – | IC50 [3]: 21 µM; IC50 [4]: 15 ± 7.3 µM; IC50 [5]: 21 µM
15 | 5-(5-cyanopentyl)-7-[(R,S)-(1-phenyl-2-hydroxyethyl)amino]-9-isopropylpurine [Compound 123] | – | – | – | – | – | – | – | IC50 [3]: 42.5 ± 6 µM; IC50 (cdk1/cyclin B (CDC2); cell free system (Table 8)): 33 µM; IC50 [4]: 33 ± 4.4 µM; IC50 [5]: 42 ± 4.8 µM
16 | 5-(hexylamino)-7-[N-(3,4-dihydroxybenzyl-N-methyl]amino-isopropylpyrazolo[4,3-d]pyrimidine [Compound 41] | – | – | – | – | – | – | – | IC50 [3]: 14 ± 3.2 µM; IC50 (cdk1/cyclin B (CDC2); cell free system (Table 8)): 1 µM; IC50 [4]: 10 ± 2 µM; IC50 [5]: 15.3 ± 2.4 µM
17 | Cc1n[nH]c2c(NCc3ccccc3)nc(NCCN)nc12 [2-aminoethylamino / benzylamino / methyl] | 15 | 14.7 | 41 | 35 | – | – | – | –
18 | CC(C)c1n[nH]c2c(NCc3ccccc3)nc(NCCCO)nc12 [Compound 7, 5-(3-hydroxypropylamino)-7-benzylamino-3-isopropylpyrazolo[4,3-d]pyrimidine] | – | – | – | – | – | – | – | IC50 ([3]; Homo sapiens, MOLT-3): 24 ± 2.2 µM; IC50 (cdk1/cyclin B (CDC2)): 0.2 µM; IC50 (cdk1/cyclin B (CDC2); cell free system (Table 8)): 1 µM; IC50 ([4]; Homo sapiens, Lymphocyte): 9 ± 0.2 µM; IC50 ([5]; Homo sapiens, KG-1): 25 ± 4.4 µM
19 | CCC(CO)Nc1nc(NCc2ccc(O)c(O)c2)c2ncn(C(C)C)c2n1 (centres unmarked) [Compound 243, 2-(1-ethyl-2-hydroxyethylamino)-6(3,4-dihydroxybenzylamino)-9-isopropylpurine] | – | – | – | – | – | – | – | IC50 ([3]; Homo sapiens, MOLT-3): 9 ± 1.2 µM; IC50 ([4]; Homo sapiens, Lymphocyte): 9 ± 6.6 µM
20 | Nc1c(Cl)ccc(CNc2ncnc3cn[nH]c23)c1N [H / 2,3-diamino-4-chlorobenzylamine / H] | – | – | – | – | 3 | 3 | 18 | –
21 | CC(=O)c1ccccc1CNc1ncnc2cn[nH]c12 [H / 2-acetylbenzylamino / H] | – | – | – | – | 3 | 5 | 28 | –
22 | Nc1cc(CNc2ncnc3cn[nH]c23)ccc1Cl [H / 3-amino-4-chlorobenzylamine / H] | – | – | – | – | 4 | 5 | 21 | –
23 | Clc1ccc(Nc2ncnc3cn[nH]c23)cc1 [H / 4-chloroanilino / H] | – | – | – | – | 3 | 6 | 27 | –
